Test systems include HCT-116; CCRF-CEM; MDA-N; SN12C; SK-OV-3; Malme-3M; OVCAR-8; RXF 393; UACC-62; NCI-H460; SF-295; U-251; MDA-MB-435; OVCAR-4; DU-145; PC-3; NCI-H23; SF-539; SNB-19; MCF7.
Common to all, as to test: DTP human tumour cell line panel, 48 h

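Growth conditions: 96-well plates. Treatment: test compound, 48 hours, 5 concentrations. Analysis: linear interpolation between bracketing concentrations; unreached endpoints set to highest concentration. GI50 marks 50% less growth.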 Activity calls are given as the source filed them. No stated cut-off is given here; in the data, active = GI50 up to about 1.1 µM and inactive = higher.

`C[Si](C)(C)C#Cc1cc(-c2nc3ccccc3s2)ccc1N`: the GI50 in the assay with HCT-116 is 13.7 µM (inactive); with CCRF-CEM it was 21.7 µM (inactive); in the assay on MDA-N it was 17.8 µM (inactive); in the assay with SN12C it was 15.5 µM (inactive); in the assay with SK-OV-3, 19 µM (inactive); with Malme-3M, 3.35 µM (inactive). Besides, the GI50 is 16.7 µM (inactive) in the assay on OVCAR-8; 17.5 µM (inactive) with RXF 393; 16.3 µM (inactive) in the assay with UACC-62; 15.9 µM (inactive) in the assay on NCI-H460; 18.6 µM (inactive) with SF-295; 19.2 µM (inactive) with U-251. The GI50 with MDA-MB-435 was 18.3 µM (inactive); in the assay with OVCAR-4, 14.9 µM (inactive); in the assay on DU-145, 26.6 µM (inactive); in the assay on PC-3 it was 16.2 µM (inactive); with NCI-H23, 18.5 µM (inactive); in the assay with SF-539, 18.7 µM (inactive). The GI50 is 18.7 µM (inactive) with SNB-19 and 0.491 µM (active) in the assay on MCF7.
In the case of `COC12COC(=O)C1C(c1ccc3c(c1)OCO3)c1cc3c(cc1O2)OCO3` (stereo not given), the GI50 in the assay with HCT-116 is 11.1 µM (inactive); with CCRF-CEM, 8.57 µM (inactive); with MDA-N, 2.69 µM (inactive); in the assay with SN12C it was 40 µM (inactive); in the assay on SK-OV-3 it was 14.2 µM (inactive); with Malme-3M, 40.7 µM (inactive). Also, the GI50 with OVCAR-8 was 26.1 µM (inactive); in the assay on RXF 393 it was 10.3 µM (inactive); in the assay with UACC-62 it was 15.8 µM (inactive); in the assay with NCI-H460, 10.5 µM (inactive); in the assay with SF-295 it was 6.95 µM (inactive); in the assay with U-251, 32 µM (inactive). Moreover, the GI50 was 2.72 µM (inactive) in the assay with MDA-MB-435; 36.5 µM (inactive) with OVCAR-4; 25 µM (inactive) in the assay on DU-145; 12.6 µM (inactive) with PC-3; 35.6 µM (inactive) with NCI-H23; 10.7 µM (inactive) in the assay with SF-539. For the same compound, the GI50 was 54.1 µM (inactive) in the assay with SNB-19 and 14.3 µM (inactive) with MCF7.
Take `CC1C(C)(C)C23CC12C1(OCCO1)C3Br` (stereo not given): the GI50 in the assay on HCT-116, in the assay on CCRF-CEM, with MDA-N, in the assay on SN12C, in the assay with SK-OV-3 and in the assay with Malme-3M was > 100 µM (inactive) each time. Besides, the GI50 with OVCAR-8, in the assay on RXF 393, with UACC-62, with NCI-H460, with SF-295 and with U-251 was > 100 µM (inactive) in each case. Besides, the GI50 in the assay with MDA-MB-435, in the assay with OVCAR-4, in the assay on DU-145, in the assay with PC-3, in the assay with NCI-H23 and in the assay with SF-539 was > 100 µM (inactive) throughout. The GI50 with SNB-19 and in the assay with MCF7 was > 100 µM (inactive) in each case.
For the compound `CC(C)(C)N1NC1C1NN1C(C)(C)C` (stereo not given), the GI50 in the assay with HCT-116, with CCRF-CEM, in the assay on MDA-N, in the assay with SN12C, in the assay on SK-OV-3 and in the assay with Malme-3M was > 100 µM (inactive) in each case. For the same compound, the GI50 in the assay with OVCAR-8, in the assay with RXF 393, in the assay on UACC-62, in the assay with NCI-H460, with SF-295 and in the assay on U-251 was > 100 µM (inactive) each time. For the same compound, the GI50 in the assay on MDA-MB-435, in the assay with OVCAR-4, with DU-145, in the assay on PC-3, in the assay with NCI-H23 and in the assay with SF-539 was > 100 µM (inactive) throughout. The GI50 with SNB-19 and in the assay with MCF7 was > 100 µM (inactive) throughout.
Take `CC1/C=C/C=C/CC/C=C/C=C/C=C/C=C/C(OC2OC(C)C(O)C(N)C2O)CC2OC(CC(O)C(O)CCC(O)CC(O)CC(O)CC(=O)OC(C)C(C)C1O)CC(O)C2C(=O)O` (stereo not given): the GI50 is 17.2 µM (inactive) in the assay with HCT-116; 28.8 µM (inactive) with CCRF-CEM; 17.3 µM (inactive) in the assay with MDA-N; 15.9 µM (inactive) in the assay with SN12C; 23.2 µM (inactive) in the assay with SK-OV-3; 17.9 µM (inactive) with Malme-3M. Further, the GI50 in the assay on OVCAR-8 is 21.6 µM (inactive); in the assay with RXF 393, 13.8 µM (inactive); in the assay on UACC-62, 20.9 µM (inactive); with NCI-H460 it was 17.5 µM (inactive); with SF-295, 22.3 µM (inactive); in the assay on U-251, 17.4 µM (inactive). The GI50 in the assay with MDA-MB-435 was 17.6 µM (inactive); in the assay on OVCAR-4 it was 15.2 µM (inactive); in the assay with DU-145 it was 17.7 µM (inactive); in the assay on PC-3, 18.8 µM (inactive); in the assay with NCI-H23, 18.1 µM (inactive); with SF-539 it was 16.1 µM (inactive). The GI50 with SNB-19 is 18.3 µM (inactive); in the assay on MCF7, 17.5 µM (inactive).
Turning to `COP(=O)(OC)c1ccc(NCc2cc(O)ccc2O)cc1`, the GI50 in the assay with HCT-116 is 24.8 µM (inactive); with CCRF-CEM, 18.8 µM (inactive); in the assay with MDA-N, 26.3 µM (inactive); with SN12C it was 30.3 µM (inactive); with SK-OV-3, > 100 µM (inactive); in the assay with Malme-3M it was 18.9 µM (inactive). Moreover, the GI50 was 26.8 µM (inactive) in the assay on OVCAR-8; 25.3 µM (inactive) in the assay on RXF 393; 19.5 µM (inactive) in the assay on UACC-62; 22.1 µM (inactive) in the assay with NCI-H460; 17.3 µM (inactive) with SF-295; 30.6 µM (inactive) with U-251. In addition, the GI50 in the assay with MDA-MB-435 was 26.8 µM (inactive); in the assay with OVCAR-4 it was 27 µM (inactive); in the assay with DU-145, 36.8 µM (inactive); in the assay with PC-3, > 60.4 µM (inactive); in the assay on NCI-H23, 34.1 µM (inactive); in the assay on SF-539, 21.2 µM (inactive). Moreover, the GI50 is 37.8 µM (inactive) in the assay with SNB-19 and 28.8 µM (inactive) with MCF7.
`CCCCCCCC(=O)N1C2CC3CCC2(CS1(=O)=O)C3(C)C` (stereo not given): the GI50 in the assay with HCT-116 is 30.1 µM (inactive); in the assay on CCRF-CEM it was 16.5 µM (inactive); in the assay with MDA-N, 26.8 µM (inactive); in the assay on SN12C, 20.9 µM (inactive); with SK-OV-3 it was 46.8 µM (inactive); in the assay on Malme-3M it was 16.7 µM (inactive). For the same compound, the GI50 with OVCAR-8 is 34.1 µM (inactive); with RXF 393 it was 13.3 µM (inactive); in the assay on UACC-62, 22.8 µM (inactive); in the assay with NCI-H460, 30.1 µM (inactive); in the assay with SF-295 it was 22.2 µM (inactive); with U-251, 31.3 µM (inactive). In addition, the GI50 in the assay with MDA-MB-435 is 31.4 µM (inactive); with OVCAR-4, 32.7 µM (inactive); in the assay on DU-145, 36.6 µM (inactive); in the assay on PC-3 it was 23.7 µM (inactive); in the assay on NCI-H23, 33.3 µM (inactive); in the assay with SF-539, 16.9 µM (inactive). Moreover, the GI50 is 26 µM (inactive) in the assay on SNB-19 and 18.7 µM (inactive) with MCF7.

(Values after ChEMBL document CHEMBL1201862, “PubChem BioAssay data set” (2004).)
